In patent US6939550B2, “Stabilized antihistamine syrup” (Schering Corporation, priority 1998, dated 2005):
Read-outs that look alike come from different tables or passages of the source. Each block holds one compound with its values, some of them ahead of it.

Key:
[1] = Accelerated storage stability of syrups in sealed vials at 55° C., analysis by HPLC; format: physicochemical; conditions: severe storage conditions of the test (55° C.)
Description: This level can be readily determined by means of an accelerated storage stability test, in which packages of the final product are stored at elevated temperatures above the usual storage temperatures to which the product is expected to be exposed; the present inventors have used temperatures up to 55° C. for this purpose, although such temperatures tend to cause a minor discoloration (darkening) of the syrups, probably due to some carmelization of the contained sucrose. It is expected that most drug degradation reactions will be accelerated by the elevated temperature. At predetermined intervals, some of the packages are opened and analyzed to determine the amount of active ingredients and impurities present in the formulation.
Twenty five mL portions of the two syrups are placed into 50 mL flint glass vials, then sealed with rubber stoppers and aluminum caps. The sealed vials are stored at 55° C. until their removal and analysis by high performance liquid chromatography.
Sample A from the preceding example and similarly prepared syrups which also contain 0.1, 0.25, 0.5 or 0.75 mg/mL of disodium EDTA are packaged as in the prior example, and stored and tested similarly.

[2] = Test of common antioxidant additives incorporated into the syrup
Description: Another test was conducted, wherein common antioxidant additives were incorporated into the syrup. Ideally, the antioxidant will be soluble in the syrup and is safe for use in foods and pharmaceutical preparations.

inhibition of the degradation of loratadine [1]: significant inhibition
Compound: O=C(O)CN(CCN(CC(=O)O)CC(=O)O)CC(=O)O [EDTA, ethylenediaminetetraacetic acid]

color change in the product ([2]; additive at 0.1 and 1 mg/mL in the syrup): unacceptable strong color change
Compound: O=C1O[C@H]([C@@H](O)CO)C(O)=C1O [ascorbic acid]

solubility in the syrup [2]: not soluble
Compound: Cc1cc(C(C)(C)C)c(O)c(C(C)(C)C)c1 [butylated hydroxytoluene]

Compound: O=S([O-])O.[Na+] [sodium bisulfite]
odor imparted to the syrup ([2]; additive in the syrup): pungent, disagreeable odor

Compound: tocopherol
solubility in the syrup ([2]; oil-soluble antioxidants): not soluble
